In US11841369B2, “Method for improving quality of therapeutic cell through real-time glutathione measurement” (CELL2IN, INC., priority 2017, dated 2023):

Experiments:
[1] = tested on: hUC-MSCs; assay: FreSH-Tracer-based glutathione regeneration capacity (GRC) after diamide; set-up: species or system human; settings: hUC-MSCs subcultured three times with AA2G 250 μg/mL, low concentration of diamide, vs naive cell group
Experimental: In addition, GH is calculated as the coefficient of variation or robust coefficient of variation of cellular FR. GRC refers to a value obtained by real-time monitoring of FR after living cells are treated with an oxidizing agent, as calculated by dividing a value obtained by subtracting AUC of a group treated with 0.1-100 mM N-ethylmaleimide (NEM) from FR AUC of an oxidizing agent (diamide, H2O2, etc.)-treated group by a value obtained by subtracting the AUC of NEM-treated group from AUC of the untreated control, and multiplying the resulting value by 100. The FR of the NEM-treated group is a value for increasing the sensitivity of a GRC value by treating it as the blank value of the FR of the cells of interest. […] To remove the MitoFreSH-Tracer from the medium before measurement, the medium was exchanged with fresh 10 mM HEPES-containing HBSS, and a fluorescence image was obtained using a confocal imaging system, Operetta. By comparing GSH levels quantified from control cells not treated with RSL3 or control cells before treated with RSL3, the distribution of GSH expression-changed cells was calculated. Based on the point where the distribution histogram is divided into two peaks, the cells were divided into GSH^High cells (right peak) and GSH^Low cells (left peak), and then a ratio of corresponding cells was expressed as a percentage (%). […]

[2] = tested on: hUC-MSCs; assay: CFU-F assay of hUC-MSCs; assay type: cell-based, human; settings: 125 or 250 μg/mL AA2G, three days
Experimental: The inventors observed an effect of the material on stem cells by treating each stem cells with a material for enhancing a glutathione evaluation parameter. When hUC-MSCs were subcultured in a L-AA2G-containing medium, CFU-F, migration capacity, and an anti-inflammatory effect were observed. A CFU-F assay (n=3) was performed by treating hUC-MSCs with 125 or 250 μg/mL of AA2G for three days. As shown in FIGS. 16A and 16B, it was confirmed that, when AA2G was treated, CFU-F increased. In addition, as hUC-MSCs were treated with 125 or 250 μg/mL of AA2G for three days, PDGF-AA-induced migration capacity (n=3) was analyzed. As shown in FIGS. 17A and 17B, it was confirmed that the migration capacity was increased by AA2G treatment. In addition, the reduction in T cell proliferation, a reduction in T cell differentiation, and the promotion of Treg cell differentiation were observed by treating hUC-MSCs with 125 or 250 μg/mL of AA2G for three days. […] Meanwhile, hUC-MSCs were cultured with a glutathione precursor such as γ-glutamyl cysteine (GGC, 0.1, 0.25, and 0.5 mM). A CFU-F assay (n=3) was performed by treating hUC-MSCs with each concentration of GGC for 2 hours. […] In addition, SDF1α and PDGF-AA-induced migration capacities (n=3) were analyzed for hUC-MSCs without treatment with GGC, and SDF1α- and PDGF-AA-induced migration abilities (n=3) were analyzed by treating hUC-MSCs with the increasing concentrations of GGC. STI571 was used as a PDGFR kinase inhibitor. As shown in FIGS. 20A to 20C, it was confirmed that, according to an increase in GGC treatment concentration, SDF1α- and PDGF-AA-induced migration capacities were enhanced. A CFU-F assay (n=3) was performed by treating hUC-MSCs with 0.2, 1, 2, and 4 μM ferrostatin-1 and 0.1, 0.5, 1, and 2 μM liproxstatin-1 for 24 hours.

O=C1O[C@H]([C@@H](O)CO)C(O)=C1O[C@H]1O[C@H](CO)[C@@H](O)[C@H](O)[C@H]1O [AA2G, ascorbic acid 2-glucoside]
FreSH-Tracer-based GRC [1]: increased | CFU-F [2]: increased
